Source: ChEMBL document CHEMBL1139223, “Isofagomine- and 2,5-anhydro-2,5-imino-D-glucitol-based glucocerebrosidase pharmacological chaperones for Gaucher disease intervention” (J Med Chem, 2007)

Assays:
[1] = system: L444P; test: Increase in non-lysosomal activity of glucocerebrosidase […] mutant in human L444P cells at 20 uM relative to Conduritol B epoxide; type: cell-based
[2] = molecular target: T1, Lysosomal acid glucosylceramidase (Homo sapiens) (UniProt P04062); test: Increase in non-lysosomal activity of glucocerebrosidase N370S mutant in human L444P cells at 30 uM relative to Conduritol B epoxide; type: cell-based
T1 sequence (whole entry): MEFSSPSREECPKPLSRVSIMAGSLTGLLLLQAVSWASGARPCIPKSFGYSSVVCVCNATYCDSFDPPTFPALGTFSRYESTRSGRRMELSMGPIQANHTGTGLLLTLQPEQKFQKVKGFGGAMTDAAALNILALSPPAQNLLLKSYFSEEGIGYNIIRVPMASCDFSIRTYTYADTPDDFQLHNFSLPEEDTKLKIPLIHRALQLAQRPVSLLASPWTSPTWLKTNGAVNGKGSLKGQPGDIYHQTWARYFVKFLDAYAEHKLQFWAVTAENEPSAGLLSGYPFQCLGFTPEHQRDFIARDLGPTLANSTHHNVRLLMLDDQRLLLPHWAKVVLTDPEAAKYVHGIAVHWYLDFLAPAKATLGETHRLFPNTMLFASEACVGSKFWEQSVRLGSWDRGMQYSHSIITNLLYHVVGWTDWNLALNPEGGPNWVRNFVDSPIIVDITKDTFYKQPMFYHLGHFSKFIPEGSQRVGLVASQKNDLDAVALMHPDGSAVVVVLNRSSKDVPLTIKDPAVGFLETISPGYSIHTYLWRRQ

[3] = molecular target: T2, Lysosomal acid glucosylceramidase (Homo sapiens, UniProt P04062); test: Inhibition of glucocerebrosidase
T2 sequence (P04062 whole entry): T1 sequence (whole entry)

[4] = system: L444P; test: Increase in non-lysosomal activity of glucocerebrosidase […] mutant in human L444P cells at 50 uM relative to Conduritol B epoxide; type: cell-based
[5] = molecular target: T1, Lysosomal acid glucosylceramidase (Homo sapiens); test: Increase in non-lysosomal activity of glucocerebrosidase N370S mutant in human L444P cells at 20 uM relative to Conduritol B epoxide; type: cell-based
[6] = molecular target: T1, Lysosomal acid glucosylceramidase (Homo sapiens); test: Increase in non-lysosomal activity of glucocerebrosidase N370S mutant in human L444P cells at 75 uM relative to Conduritol B epoxide; type: cell-based
[7] = system: L444P; test: Increase in non-lysosomal activity of glucocerebrosidase […] mutant in human L444P cells at 150 uM relative to Conduritol B epoxide; type: cell-based
[8] = molecular target: T1, Lysosomal acid glucosylceramidase (Homo sapiens); test: Increase in non-lysosomal activity of glucocerebrosidase N370S mutant in human L444P cells at 50 uM relative to Conduritol B epoxide; type: cell-based

## O=C(CCCN1[C@H](CO)[C@@H](O)[C@H](O)[C@@H]1CO)NC12CC3CC(CC(C3)C1)C2
[1]
  Activity: 1.6
[2]
  Activity: 2.2
[3]
  IC50: 507 µM

## O=C(CCCCN1[C@H](CO)[C@@H](O)[C@H](O)[C@@H]1CO)NC12CC3CC(CC(C3)C1)C2
[4]
  Activity: 2.2
[3]
  IC50: 393 µM
[5]
  Activity: 1.4

## O=C(CCCCCN1C[C@H](CO)[C@@H](O)[C@H](O)C1)NC12CC3CC(CC(C3)C1)C2
[3]
  IC50: 94 µM
[6]
  Activity: 2.3
[7]
  Activity: 5.1

## O=C(CCCCN1C[C@H](CO)[C@@H](O)[C@H](O)C1)NC12CC3CC(CC(C3)C1)C2
[8]
  Activity: 1.9
[3]
  IC50: 11 µM
[7]
  Activity: 7.2

## O=C(CCCN1C[C@H](CO)[C@@H](O)[C@H](O)C1)NC12CC3CC(CC(C3)C1)C2
[3]
  IC50: 18 µM
[6]
  Activity: 2.5
[7]
  Activity: 7
